According to patent US20100160445A1, “Synergistic Mixtures of OPP and DGH” (priority 2002, published 2010):
Where a name gives a salt, the structure may show the parent alone.

Tested on: mildew
Test: Mildew resistance testing of caulking adhesives, ASTM D3273
Type: cell-based
Description: Testing was also completed on Franklin International Caulking Adhesives. The testing that was conducted was done in accordance with test ASTM D3273 as set forth in the Annual Book of ASTM Standards, Vol 06.01 which is hereby incorporated by reference. This is a standard test method for mildew known to those skilled in the art. When performing this test OPP was not tested by itself as it is known in the art of coatings that significant amounts of OPP are required, typically in the range of 2,000 to 10,000 ppm which is supported by EPA Registration No.'s 39967-11-67869 and EPA Registration No. 464-78-67869. An example of the significant amounts of OPP needed can also be seen in the OPP results in the paint testing shown above.
• 10=No Mildew Growth, Excellent Mildew Resistance • 7-9=Trace Mildew Growth, Very Good Mildew Resistance • 6-5=Moderate Mildew Growth, Poor Mildew Resistance • 4-0=Heavy Mildew Growth, Failed

[1] = Titebond Professional Drywall Adhesive, 500 ppm
[2] = Titebond Professional Drywall Adhesive, 1000 ppm
[3] = Titebond Professional Drywall Adhesive, 1500 ppm
[4] = Titebond Professional Drywall Adhesive, 2000 ppm
[5] = Titebond Professional Tub Surround Adhesive, 500 ppm
[6] = Titebond Professional Tub Surround Adhesive, 1000 ppm
[7] = Titebond Professional Tub Surround Adhesive, 1500 ppm
[8] = Titebond Professional Tub Surround Adhesive, 2000 ppm
[9] = Titebond Solvent Free Construction Adhesive, 500 ppm
[10] = Titebond Solvent Free Construction Adhesive, 1000 ppm
[11] = Titebond Solvent Free Construction Adhesive, 1500 ppm
[12] = Titebond Solvent Free Construction Adhesive, 2000 ppm
[13] = Titebond Solvent Free Fast Grab FRP Adhesive, 500 ppm
[14] = Titebond Solvent Free Fast Grab FRP Adhesive, 1000 ppm
[15] = Titebond Solvent Free Fast Grab FRP Adhesive, 1500 ppm
[16] = Titebond Solvent Free Fast Grab FRP Adhesive, 2000 ppm
[17] = Titebond Solvent Free Subfloor Adhesive, 500 ppm
[18] = Titebond Solvent Free Subfloor Adhesive, 1000 ppm
[19] = Titebond Solvent Free Subfloor Adhesive, 1500 ppm
[20] = Titebond Solvent Free Subfloor Adhesive, 2000 ppm

## CCCCCCCCCCCCNC(=N)N [DGH, Dodecylguanidine Hydrochloride]
[1]
  Mildew Results 7 Days: 10
  Mildew Results 14 Days: 10
  Mildew Results 21 Days: 10
  Mildew Results 28 Days: 10
[2]
  Mildew Results 7 Days: 10
  Mildew Results 14 Days: 10
  Mildew Results 21 Days: 10
  Mildew Results 28 Days: 10
[3]
  Mildew Results 7 Days: 10
  Mildew Results 14 Days: 10
  Mildew Results 21 Days: 10
  Mildew Results 28 Days: 10
[4]
  Mildew Results 7 Days: 10
  Mildew Results 14 Days: 10
  Mildew Results 21 Days: 10
  Mildew Results 28 Days: 10
[5]
  Mildew Results 7 Days: 10
  Mildew Results 14 Days: 10
  Mildew Results 21 Days: 10
  Mildew Results 28 Days: 10
[6]
  Mildew Results 7 Days: 10
  Mildew Results 14 Days: 10
  Mildew Results 21 Days: 10
  Mildew Results 28 Days: 10
[7]
  Mildew Results 7 Days: 10
  Mildew Results 14 Days: 10
  Mildew Results 21 Days: 10
  Mildew Results 28 Days: 10
[8]
  Mildew Results 7 Days: 10
  Mildew Results 14 Days: 10
  Mildew Results 21 Days: 10
  Mildew Results 28 Days: 10
[9]
  Mildew Results 7 Days: 10
  Mildew Results 14 Days: 10
  Mildew Results 21 Days: 10
  Mildew Results 28 Days: 10
[10]
  Mildew Results 7 Days: 10
  Mildew Results 14 Days: 10
  Mildew Results 21 Days: 10
  Mildew Results 28 Days: 10
[11]
  Mildew Results 7 Days: 10
  Mildew Results 14 Days: 10
  Mildew Results 21 Days: 10
  Mildew Results 28 Days: 10
[12]
  Mildew Results 7 Days: 10
  Mildew Results 14 Days: 10
  Mildew Results 21 Days: 10
  Mildew Results 28 Days: 10
[13]
  Mildew Results 7 Days: 10
  Mildew Results 14 Days: 10
  Mildew Results 21 Days: 0
  Mildew Results 28 Days: 0
[14]
  Mildew Results 7 Days: 10
  Mildew Results 14 Days: 10
  Mildew Results 21 Days: 0
  Mildew Results 28 Days: 0
[15]
  Mildew Results 7 Days: 10
  Mildew Results 14 Days: 10
  Mildew Results 21 Days: 10
  Mildew Results 28 Days: 9
[16]
  Mildew Results 7 Days: 10
  Mildew Results 14 Days: 10
  Mildew Results 21 Days: 10
  Mildew Results 28 Days: 10
[17]
  Mildew Results 7 Days: 7
  Mildew Results 14 Days: 7
  Mildew Results 21 Days: 0
  Mildew Results 28 Days: 0
[18]
  Mildew Results 7 Days: 7
  Mildew Results 14 Days: 7
  Mildew Results 21 Days: 0
  Mildew Results 28 Days: 0
[19]
  Mildew Results 7 Days: 7
  Mildew Results 14 Days: 7
  Mildew Results 21 Days: 0
  Mildew Results 28 Days: 0
[20]
  Mildew Results 7 Days: 10
  Mildew Results 14 Days: 10
  Mildew Results 21 Days: 10
  Mildew Results 28 Days: 10
